Here are results for 19 compounds from US10246448B2, “4-hydroxy-2-phenyl-1,3-thiazol-5-yl methanone derivatives as TRPM8 antagonists” (DOMPÉ FARMACEUTICI S.P.A., priority 2015, dated 2019).

Data set [1] has as its target T1, human TRPM8 (Homo sapiens, UniProt Q7Z2W7). Nature of the data set: In vitro TRPM8 assay: intracellular calcium levels, Ca2+ sensitive fluorescent dye (FLIPR), agonist Icilin or Cooling Agent 10. The class given is cell-based. The arrangement: expressed in transfected cells. Conditions: HEK-293 cells stably expressing human TRPM8. On the procedure:
The TRPM8 antagonistic activity of all 26 compounds was determined by measuring changes in intracellular calcium levels using a Ca^+2 sensitive fluorescent dye. The experiments were performed using HEK-293 cells stably expressing the human TRPM8. Cells were seeded 10000 cells/well in 384 plates coated by Poly-D-Lysine MATRIX black/clear bottom (Thermo Scientific, Waltham, Mass. USA) in complete medium and grown overnight at 37° C., 5% CO2. 24 h after seeding, cell culture media was removed, cells were washed with Tyrode's assay buffer and then loaded with the fluorescent Ca^+2 indicator Fluo-4 NW dye (Molecular Probes, Life Technologies, Paisley, UK) supplemented with water-soluble Probenecid (Molecular Probes). Dye loaded cell plates were incubated for 1 h at room temperature. The compounds or vehicle were added and the kinetic response was monitored by a fluorimetric imaging plate ([…]; Molecular Devices, Sunnyvale, Calif., USA) over a period of five minutes (300 seconds). A second injection 5 minutes later of the reference agonist Cooling Agent 10 or Icilin at EC80 concentration was performed. The signal of the emitted fluorescence was recorded during additional three minutes. Data were analyzed by Spotfire DecisionSite version 9.1.1. The bioactivity exerted by the compounds or vehicle was expressed as a percent inhibition and IC50 values were then calculated.

A short description of data set [2]: Metabolic stability in rat microsomes, Phase II assay. The class given is in vitro ADME. Conditions: pH 7.4; rat liver microsomes 0.5 mg/mL, Alamethicin activated, UDPGA, compound 1 μM, 37° C.; read-out: Metabolic Stability (t1/2, min) Phase2. On the procedure:
Rat liver microsomes (0.5 mg/mL final conc.) were incubated in ice for 15 min in 50 mM potassium phosphate buffer pH 7.4, 3 mM MgCl2 and activated with Alamethicin 50 μg/mg microsomal protein. Samples were transferred at 37° C. and compounds 1, 2, 8 and 9, dissolved in DMSO, were added in duplicate at the final concentration of 1 μM. After 5 min, reaction is started by adding 25 μl of UDPGA (16.15 mg/ml in 0.2% Sodium Bicarbonate). Samples were taken at time 0, 10, 20, 30 and 60 min added to 150 μl of acetonitrile with Verapamil 0.02 uM as Internal Standard (IS) to stop the reaction. After centrifugation the supernatants were analysed by LC-MS/MS. 7-Hydroxycoumarin was added as reference standard.

Data set [3] can be described thus: Metabolic stability in rat microsomes, Phase I assay. The class given is in vitro ADME. Conditions: for half-life at 1 μM: pH 7.4, rat liver microsomes 0.5 mg/ml, compound 1 μM, NADP cofactors mixture, 37° C., read-out: Metabolic Stability (t1/2, min) Phase1; for intrinsic clearance half-life (in words): metabolic stability in rat microsomes. On the procedure:
Compounds 1, 2, 8 and 9 in duplicate were dissolved in DMSO and pre-incubated, at the final concentration of 1 μM, for 10 min at 37° C. in potassium phosphate buffer 50 mM pH 7.4, 3 mM MgCl2, with rat liver microsomes (Xenotech) at the final concentration of 0.5 mg/ml.
After the pre-incubation period, reactions were started by adding the cofactors mixture (NADP, Glc6P, Glc6P-DH in 2% Sodium bicarbonte); samples (50 μl) were taken at time 0, 10, 20, 30 and 60 min added to 150 μl of acetonitrile with Verapamil 0.02 μM as Internal Standard (IS) to stop the reaction. After centrifugation the supernatants were analysed by LC-MS/MS.
A control sample without cofactors was added in order to check the stability of test compounds in the matrix after 60 min. 7-Ethoxycoumarin and propranolol were added as reference standards.

For data set [4], the target named is T1, human TRPM8. Nature of the data set: In vitro cold stimulation assay.
Experimental: The TRPM8 antagonisticic activity of all 26 compounds was determined in an in vitro cold stimulation assay.
3-4 days after seeding (˜80% confluent cells), the medium was removed and cells were loaded by a solution of Screen Quest™ Fluo-8 NW dye (ABS Bioquest, Sunnyvale, Calif., USA) in the dark. Dye-loaded cell flasks were incubated for 45 minutes at room temperature in the dark and the Fluo-8 NW solution was then removed and cells were seeded in the 96 Assay Plates (MicroAmp™ Optical 96-Well Reaction Plates; Applied Biosystems, Life technologies) at 100,000 cells/'well (20 μl/well). […] All data point determinations were performed in duplicate before a mean value was calculated, including error bars representing the standard error of the mean.
Setting [5] is: agonist Cooling Agent 10 at EC80, read-out: Ca2+ (IC50 μM) Cool 10.
Setting [6] is: agonist Icilin at EC80, read-out: Ca2+ (IC50 μM) Icilin.

T1 sequence (Q7Z2W7 whole entry): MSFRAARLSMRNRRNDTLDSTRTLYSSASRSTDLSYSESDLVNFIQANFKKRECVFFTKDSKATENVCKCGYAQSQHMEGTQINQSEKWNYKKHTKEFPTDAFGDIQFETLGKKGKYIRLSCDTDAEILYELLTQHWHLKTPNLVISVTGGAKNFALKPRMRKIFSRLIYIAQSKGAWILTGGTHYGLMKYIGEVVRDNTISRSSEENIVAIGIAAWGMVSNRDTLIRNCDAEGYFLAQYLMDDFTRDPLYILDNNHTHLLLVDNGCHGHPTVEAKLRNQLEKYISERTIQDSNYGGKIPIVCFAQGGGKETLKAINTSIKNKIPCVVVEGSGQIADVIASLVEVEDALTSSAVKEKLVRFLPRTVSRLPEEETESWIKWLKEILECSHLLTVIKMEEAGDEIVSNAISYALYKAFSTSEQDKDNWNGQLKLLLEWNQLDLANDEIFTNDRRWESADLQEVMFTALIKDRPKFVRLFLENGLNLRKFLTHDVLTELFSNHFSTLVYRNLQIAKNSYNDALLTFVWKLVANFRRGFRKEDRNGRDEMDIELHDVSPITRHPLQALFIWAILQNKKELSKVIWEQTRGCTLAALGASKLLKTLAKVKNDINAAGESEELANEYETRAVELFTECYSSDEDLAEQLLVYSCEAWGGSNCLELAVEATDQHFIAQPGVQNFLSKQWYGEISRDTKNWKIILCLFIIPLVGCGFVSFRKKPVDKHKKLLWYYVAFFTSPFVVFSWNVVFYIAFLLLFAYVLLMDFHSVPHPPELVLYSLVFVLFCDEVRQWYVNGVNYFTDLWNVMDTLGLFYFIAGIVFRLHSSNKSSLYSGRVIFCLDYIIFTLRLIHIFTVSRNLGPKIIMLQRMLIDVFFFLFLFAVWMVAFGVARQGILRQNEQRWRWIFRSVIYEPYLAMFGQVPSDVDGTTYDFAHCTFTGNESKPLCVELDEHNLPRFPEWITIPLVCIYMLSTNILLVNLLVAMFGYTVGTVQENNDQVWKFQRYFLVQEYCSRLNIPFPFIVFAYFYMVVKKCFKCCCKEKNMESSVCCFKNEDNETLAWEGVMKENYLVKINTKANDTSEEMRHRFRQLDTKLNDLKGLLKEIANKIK

As for `O=C(c1sc(-c2ccccc2O)nc1O)N1CCCOC1` [Example 11, [4-hydroxy-2-(2-hydroxyphenyl)-1,3-thiazol-5-yl](1,3-oxazinan-3-yl)methanone], the figures for the IC50 on human TRPM8 [1] (setting [5]), at human TRPM8 [1] (setting [6]) and against human TRPM8 [4] were 0.281 µM, 0.256 µM and 106 nM, respectively. The half-life at 1 μM in data set [2] is 50 min; in data set [3] it was 51 min.

For `O=C(c1sc(-c2cccc(F)c2)nc1O)N1CCCCC1` [Example 14, [2-(3-fluorophenyl)-4-hydroxy-1,3-thiazol-5-yl](piperidin-1-yl)methanone], the IC50 on human TRPM8 [1] (setting [5]) is 1.51 µM; on human TRPM8 [1] (setting [6]), 1.47 µM; at human TRPM8 [4], 985 nM. The half-life at 1 μM in data set [2] was 65 min; in data set [3], 67 min.

Regarding `O=C(c1sc(-c2cccc(F)c2)nc1O)N1CCCC1` [Example 7, [2-(3-fluorophenyl)-4-hydroxy-1,3-thiazol-5-yl](pyrrolidin-1-yl)methanone], the IC50 was 1.36 µM on human TRPM8 [1] (setting [5]), 1.56 µM at human TRPM8 [1] (setting [6]) and 1230 nM on human TRPM8 [4]. Also, the half-life at 1 μM in data set [2] was determined as 51 min; in data set [3], 46 min.

In the case of `O=C(c1sc(-c2ccccc2O)nc1O)N1CCCO1` [Example 2, [4-hydroxy-2-(2-hydroxyphenyl)-1,3-thiazol-5-yl](1,2-oxazolidin-2-yl)methanone], the results for the IC50 on human TRPM8 [1] (setting [5]), at human TRPM8 [1] (setting [6]) and against human TRPM8 [4] were 0.011 µM, 0.012 µM and 5.5 nM, respectively. Besides, the values for the half-life at 1 μM in data set [2] and in data set [3] were 86 min and 97 min, respectively. The “intrinsic clearance half-life (in words)” value in data set [3] is listed as “highest intrinsic clearance half-life”.

For the compound `O=C(c1ccccn1)c1sc(-c2cccc(F)c2)nc1O` [Example 22, [2-(3-fluorophenyl)-4-hydroxy-1,3-thiazol-5-yl](pyridin-2-yl)methanone], the IC50 amounted to 0.523 µM on human TRPM8 [1] (setting [5]), 0.54 µM at human TRPM8 [1] (setting [6]) and 478 nM against human TRPM8 [4]. In addition, the half-life at 1 μM in data set [2] is 55 min; in data set [3] it was 52 min.

Regarding `O=C(c1sc(-c2cccc(F)c2)nc1O)n1ccnn1` [Example 31, [2-(3-fluorophenyl)-4-hydroxy-1,3-thiazol-5-yl](1H-1,2,3-triazol-1-yl)methanone], the IC50 at human TRPM8 [1] (setting [5]) stood at 0.94 µM; at human TRPM8 [1] (setting [6]), 0.082 µM; against human TRPM8 [4] it was 50 nM. The results for the half-life at 1 μM in data set [2] and in data set [3] were 67 min and 85 min, respectively.

In the case of `O=C(c1sc(-c2cccc(F)c2)nc1O)N1CCCCCO1` [Example 27, [2-(3-fluorophenyl)-4-hydroxy-1,3-thiazol-5-yl](1,2-oxazepan-2-yl)methanone], the IC50 on human TRPM8 [1] (setting [5]) was 0.121 µM; on human TRPM8 [1] (setting [6]), 0.143 µM; against human TRPM8 [4] it was 46 nM. The half-life at 1 μM came out at 63 min in data set [2] and 75 min in data set [3].

Consider `Cn1cccc1C(=O)c1sc(-c2cccc(F)c2)nc1O` [Example 18, [2-(3-fluorophenyl)-4-hydroxy-1,3-thiazol-5-yl](1-methyl-1H-pyrrol-2-yl)methanone], for which the IC50 stood at 1.08 µM on human TRPM8 [1] (setting [5]), 1.09 µM on human TRPM8 [1] (setting [6]) and 1450 nM on human TRPM8 [4]. For the same compound, the half-life at 1 μM in data set [2] amounted to 55 min; in data set [3], 78 min.

Consider `O=C(c1ccc[nH]1)c1sc(-c2cccc(F)c2)nc1O` [Example 17, [2-(3-fluorophenyl)-4-hydroxy-1,3-thiazol-5-yl](1H-pyrrol-2-yl)methanone], for which the IC50 was found to be 0.482 µM at human TRPM8 [1] (setting [5]), 0.564 µM on human TRPM8 [1] (setting [6]) and 124 nM against human TRPM8 [4]. For the same compound, the half-life at 1 μM was 82 min in data set [2] and 90 min in data set [3].

For the compound `O=C(c1sc(-c2cccc(F)c2)nc1O)N1CCCCO1` [Example 9, [2-(3-fluorophenyl)-4-hydroxy-1,3-thiazol-5-yl](1,2-oxazinan-2-yl)methanone], the IC50 on human TRPM8 [1] (setting [5]) turned out to be 0.167 µM; at human TRPM8 [1] (setting [6]), 0.123 µM; against human TRPM8 [4], 8 nM. For the same compound, the half-life at 1 μM in data set [2] was 51 min; in data set [3], 98 min. Also, the “intrinsic clearance half-life (in words)” value in data set [3] was “highest intrinsic clearance half-life”.

For `O=C(c1sc(-c2cccc(F)c2)nc1O)C1CCCO1` (stereo not drawn) [Example 5, [2-(3-fluorophenyl)-4-hydroxy-1,3-thiazol-5-yl](oxolan-2-yl)methanone], the IC50 on human TRPM8 [1] (setting [5]) came out at 0.326 µM; at human TRPM8 [1] (setting [6]) it was 0.362 µM; against human TRPM8 [4], 124 nM. Besides, the half-life at 1 μM in data set [2] is 45 min; in data set [3], 52 min.

Consider `O=C(c1sc(-c2cccc(F)c2)nc1O)N1CC2CCCC2O1` (stereo not drawn) [Example 30, [2-(3-fluorophenyl)-4-hydroxy-1,3-thiazol-5-yl](hexahydro-2H-cyclopenta[d][1,2]oxazol-2-yl)methanone], for which the figures for the IC50 at human TRPM8 [1] (setting [5]), at human TRPM8 [1] (setting [6]) and on human TRPM8 [4] were 0.084 µM, 0.087 µM and 69 nM, respectively. Moreover, the half-life at 1 μM in data set [2] came out at 85 min; in data set [3], 82 min.

Turning to `O=C(c1sc(-c2cccc(F)c2)nc1O)n1cccc1` [Example 21, [2-(3-fluorophenyl)-4-hydroxy-1,3-thiazol-5-yl](1H-pyrrol-1-yl)methanone], the IC50 on human TRPM8 [1] (setting [5]) amounted to 0.651 µM; on human TRPM8 [1] (setting [6]), 0.745 µM; on human TRPM8 [4], 657 nM. The values for the half-life at 1 μM in data set [2] and in data set [3] were 35 min and 32 min, respectively.

For `CC1CCN(C(=O)c2sc(-c3cccc(F)c3)nc2O)O1` (stereo not drawn) [Example 29, [2-(3-fluorophenyl)-4-hydroxy-1,3-thiazol-5-yl](5-methyl-1,2-oxazolidin-2-yl) methanone], the 50% inhibitory concentration (IC50) at human TRPM8 [1] (setting [5]) was 0.091 µM; at human TRPM8 [1] (setting [6]) it was 0.111 µM; against human TRPM8 [4], 31 nM. The half-life at 1 μM in data set [2] is 78 min; in data set [3], 91 min.

`O=C(c1ccncc1)c1sc(-c2cccc(F)c2)nc1O` [Example 24, [2-(3-fluorophenyl)-4-hydroxy-1,3-thiazol-5-yl](pyridin-4-yl)methanone]: the IC50 on human TRPM8 [1] (setting [5]) amounted to 0.601 µM; on human TRPM8 [1] (setting [6]) it was 0.624 µM; on human TRPM8 [4], 525 nM. Further, the half-life at 1 μM in data set [2] amounted to 48 min; in data set [3] it was 40 min.

Consider `O=C(c1sc(-c2cccc(F)c2)nc1O)N1CCOCC1` [Example 12, [2-(3-fluorophenyl)-4-hydroxy-1,3-thiazol-5-yl](morpholin-4-yl)methanone], for which the values for the IC50 on human TRPM8 [1] (setting [5]), at human TRPM8 [1] (setting [6]) and against human TRPM8 [4] were 0.963 µM, 1.21 µM and 853 nM, respectively. Besides, the half-life at 1 μM worked out at 32 min in data set [2] and 54 min in data set [3].

As for `O=C(c1sc(-c2cccc(F)c2)nc1O)N1CCCO1` [Example 1, [2-(3-fluorophenyl)-4-hydroxy-1,3-thiazol-5-yl](1,2-oxazolidin-2-yl)methanone], the half-life at 1 μM in data set [2] came to 120 min; in data set [3] it was 185 min. For the same compound, the “intrinsic clearance half-life (in words)” value in data set [3] was “highest intrinsic clearance half-life”.

With `O=C(c1sc(-c2ccccc2O)nc1O)N1CCCCO1` [Example 8, [4-hydroxy-2-(2-hydroxyphenyl)-1,3-thiazol-5-yl](1,2-oxazinan-2-yl)methanone], the half-life at 1 μM in data set [2] worked out at 43 min. Also, in data set [3], the “intrinsic clearance half-life (in words)” value was “highest intrinsic clearance half-life” and the half-life at 1 μM came out at 102 min.

In the case of `O=C(c1sc(-c2cccc(F)c2)nc1O)N1CCOC1` [Example 3, [2-(3-fluorophenyl)-4-hydroxy-1,3-thiazol-5-yl](1,3-oxazolidin-3-yl)methanone], the half-life at 1 μM in data set [2] was 55 min; in data set [3], 78 min.
